The target in assay [1] is T1, SARS-CoV-2 M^pro (main protease, 3CL^pro) (Severe acute respiratory syndrome coronavirus 2, UniProt P0DTD1).
T1 construct: gene rep
Description: BRET-based sensor proteolytic cleavage assay. The format is biochemical. As to conditions: read-out: Determined EC50. An excerpt: BRET-based sensor proteolytic cleavage assay on SARS-CoV-2 M^pro (main protease, 3CL^pro)
(BRET reads energy transfer from a luciferase to a nearby fluorophore.)

In assay [2] the target is T1, SARS-CoV-2 M^pro (main protease, 3CL^pro). Description: BRET-based sensor proteolytic cleavage assay. The class given is biochemical. To be noted: 2 μM purified M^pro preincubated with compound 1 h at 37 °C; TBS, 1 M sodium citrate, 1 mM EDTA, 2 mM DTT; mNG-NLuc sensor substrate in HEK 293T lysate; read at 30 min.

The structures appear in SMILES notation.

For `CCCCc1nc(Cl)c(CO)n1Cc1ccc(-c2ccccc2-c2nn[nH]n2)cc1` [LT, Losartan], the EC50 in assay [1] was 260 ± 88.6 µM.
For `CCCc1nc2c(C)cc(-c3nc4ccccc4n3C)cc2n1Cc1ccc(-c2ccccc2C(=O)O)cc1` [TM, Telmisartan], the EC50 not determined entry in assay [2] is “Telmisartan completely failed to inhibit M^pro”.

The record behind these values is article PMC9775371, “Structure-Based Virtual Screening and Functional Validation of Potential Hit Molecules Targeting the SARS-CoV-2 Main Protease” (Biomolecules, 2022).
